According to a melting point compilation (Tetko et al.; mined from patent text by program, amines drawn as free bases though some values may be those of a salt):

SMILES | melting point [°C]
CC(=O)OCC1OC(n2cc(C(Cl)=CI)c(=O)[nH]c2=O)C(OC(C)=O)C1OC(C)=O (stereo not drawn) | 85 to 87
CS(=O)(=O)Nc1ccccc1OCCCN1CCC(OC(c2ccccc2)c2ccsc2)CC1 (stereo not drawn) | 79.5 to 82
COC(=O)Cc1ccc(OCCNC(=O)C2Cc3ccccc3N2S(=O)(=O)c2ccc(-c3cc(C(F)(F)F)ccc3Cl)cc2)c(OC)c1 (stereo not drawn) | 51 to 58
CS(=O)(=O)Nc1cccc([N+](=O)[O-])c1 | 237
O=C1c2cccc3c4c(cc(c23)C(=O)N1O)OCCO4 | 344 to 347
CCCCN(CCCC)Cc1nnc(-c2ncn3c2CN(C)C(=O)c2c(Cl)cccc2-3)o1 | 105 to 108
COc1ccc(CN(C)CCCc2ccc(NC(=O)c3cccc4c(=O)c5ccccc5[nH]c34)cc2)cc1OC | 112
OCCCc1nc(COc2ccc(CCCn3ccnc3)cc2)co1 | 63 to 64
COc1ccc(CN(CC2CCOCC2)S(=O)(=O)c2ccc(Cl)cc2)cc1C(=O)O | 158 to 159
C=C(C)C(=O)N1CCC(C(=O)O)CC1 | 90 to 93
CC1=CC2=C(C)C3(CC3)C(C)(O)C(=O)C2=C1 (stereo not drawn) | 138 to 140
Cc1cc(C)c2ncc(N(Cc3cc(C(C)(C)C)c(O)c(C(C)(C)C)c3)C(=O)Nc3ccc(F)cc3F)c(-c3ccccc3Cl)c2c1 | 124 to 126
CCn1c(=O)c2[nH]c(/C=C/c3cccc(OC(F)(F)F)c3)nc2n(CC)c1=O | 266 to 267
CCOC(=O)c1cn(-c2ccccn2)nc1C | 79 to 80
Nc1cc(C(=O)O)cc(S(N)(=O)=O)c1Nc1cccc(C(F)(F)F)c1 | 273 to 274
Clc1ccc(-c2nnnn2Cc2ccccc2)s1 | 176 to 177
CCCCCCCCCc1ccc(C(CCCC=O)C(=O)OC)cc1 (stereo not drawn) | 38 to 39
O=S(=O)(Nc1ccc(Cl)cc1)c1ccc(Cl)cc1 | 144 to 146
CCn1cc(-c2c(-c3ccccc3)nn3ccncc23)ccc1=O | 192 to 193

SMILES | melting point [°C]
O=C(O)CCCCCCCCCCC(=O)c1ccccc1 | 83 to 86
N#Cc1c2[nH]c(C(=O)O)cc(=O)c2cc2c(=O)cc(C(=O)O)[nH]c12 | > 320
COc1cc(OC)nc(N(C)C(=O)NS(=O)(=O)c2ccccc2OC(F)(F)F)n1 | 162
COc1cc2ncnc(N3CCC(O)(CCI)CC3)c2cc1OC | 179 to 181
CCOc1c(C=O)sc(NC(C)=O)c1C#N | 276 to 277
CCCCCc1cc(OC)c(C2=C[C@H]3CC[C@]2(CO)C3(C)C)c(OC)c1 | 26 to 27
Cc1csc2ccc(C3CCN(Cl)CC3)cc12 | 57 to 61.5
COc1ccc2c(c1)CCC1C2=CCC2(C)C(OC(C)=O)CCC12 (stereo not drawn) | 114 to 116
Cc1ccc(N2CCCCC2)c(NC(=O)c2ccncc2)c1 | 142 to 144
Cc1cc2nc(-c3ccc(F)cc3)cn2nc1Cl | 196 to 198
CCC(C(=O)N(C)C)C(C#N)(c1ccccc1)c1ccccc1 (stereo not drawn) | 170 to 172
CC1OC(=O)C(c2cccc(C(F)(F)F)c2)=C1O (stereo not drawn) | 175
CC(C)C(=O)CCSc1cc(C(C)(C)C)c(O)c(C(C)(C)C)c1 | 50 to 53
CCNC(=O)c1sc(C)cc1[Si](C)(C)C | 112 to 115
NC(=O)[C@@H]1[C@H](Nc2ccnc3[nH]c(-c4ccc(CN5CCOCC5)cc4)nc23)[C@H]2C=C[C@@H]1C2 | 240 to 244
O=C(O)C(CCc1ccccc1)NS(=O)(=O)c1ccc2c(c1)S(=O)(=O)c1ccccc1O2 (stereo not drawn) | 170 to 174
O=C(c1cnc(N2CCCC2)c(OCC2CCCC2)n1)N1CCCCC1 | 61 to 62
Cc1ccccc1C(=O)N(c1ccccc1)c1ccc(OCCN(C)C)cc1 | 98.5 to 102
N#Cc1cnc2cc3cc(O)ccc3cc2c1Nc1ccc(Cl)cc1Cl | 267 to 269

SMILES | melting point [°C]
CNC(=O)C(=NO)c1ccccc1Oc1ccccc1 | 183 to 184
COc1nc2c(Cl)c(Cl)c(Cl)c(Cl)c2n1COCCO | 139
NS(=O)(=O)c1ccc(-c2noc(-c3cnc4ccc(-c5ccc(Cl)cc5)cn34)n2)s1 | 263
O=[N+]([O-])c1c(-c2ccc(Cl)cc2)[nH]c(SC(F)(F)F)c1Br | 160 to 165
CCCC12CCC(=O)C=C1c1c(cc(CC(=O)O)c(Cl)c1Cl)O2 (stereo not drawn) | 248 to 250
O=C(O)C/C=C/CC(=O)O | 197 to 198
O=CNc1nc(S(=O)(=O)Cl)n[nH]1 | 194 to 196
FC(F)(F)Sc1[nH]ccc1-c1ccc(Cl)cc1 | 44 to 46
CCc1nnc(-c2ccc(-c3ccc(C(=O)N4CCCc5cc6c(cc54)C4(CCN(C)CC4)CO6)cc3)c(C)c2)o1 | 241 to 243
COc1ccc([C@@H]2Sc3cc(Cc4ccc(F)cc4)ccc3NC(=O)[C@@H]2O)cc1 | 216 to 218
CN(C)CCOc1cc2c(Nc3cccc(Br)c3)c(C#N)cnc2cn1 | 138 to 139
C#Cc1cccc(-c2cccc([N+](=O)[O-])c2-c2cc(C#C)ccn2)c1 | 130 to 132
C=CCNc1ccc(C(=O)O)cc1 | 144 to 146
CCn1c(C)c(C(=O)c2nccnc2C(=O)O)c2ccccc21 | 212 to 213
Cc1c(-c2ccccc2)ncc2c(N3CCOC(C)C3)nnc(N3CCOC(C)C3)c12 (stereo not drawn) | 96 to 99
CCOC(=O)CCn1c(=O)c2ccccc2n(CCCCCl)c1=O | 71 to 72
O=C1c2ccccc2C(=O)N1Cc1ccc(OCCCCc2ccccc2)cc1 | 106 to 108
Oc1ccccc1OCC(F)(F)F | 49 to 50
O=c1[nH]c2c(Cl)cccc2c(=O)o1 | 225 to 230

More lines, now with the values ahead:

melting point [°C] | SMILES
295 to 297 | COc1cc(-c2cnc3[nH]c(=O)n(CC4CCCCC4)c3n2)ccn1
149 to 151 | CCOC(=O)C1=C(COCCNC(=O)n2ccnc2)NC(C)=C(C(=O)OC)C1c1ccccc1Cl (stereo not drawn)
89 to 90 | CCC(=O)NCCC1CCc2ccc3ncoc3c21 (stereo not drawn)
157 | CCCn1c(-c2ccc(O)cc2)cnc1SC
48 to 49 | CC(C)C[C@H](NC(=O)OCc1ccccc1)C(=O)N[C@H]1CCOC1O (stereo partly drawn)
167 to 170 | COc1ccc(C=O)c2cc(C)oc12
188 to 190 | Cc1ccc(C2c3c(C)c(N4CCN(C)CC4)c(C)c(C)c3OC2(C)C)cc1 (stereo not drawn)
24 to 25 | CC(C)Cc1ccc2c(c1)OC(=O)C2
144 to 145 | CSc1ncncc1C(Cl)c1ccccc1F (stereo not drawn)
269 to 271 | CCn1nc2c(N)nc3ccccc3c2c1CC1(F)CCN(S(C)(=O)=O)CC1
148 | S=c1[nH]c2c(n1Nc1cccc(Cl)c1)CCCC2
192 to 193 | COc1ccc(CSc2nnc(-c3ccc4[nH]ncc4c3)o2)cc1C#N
140 to 145 | O=C(CCCCCCCCCCC(=O)Oc1cc(O)cc(O)c1)Oc1cc(O)cc(O)c1
129 to 130 | COC(=O)C=Cc1ccc(OCc2nc(-c3ccco3)oc2C)c(OC)c1
112 to 116 | COc1ccc2nc(-c3ccc(OC)c(F)c3)cc(Cl)c2c1
112 to 115 | O[C@@H]1CNC[C@H]1Oc1cccc2ccccc12 (relative stereo)
174 to 175 | NC(=O)c1ccc(NC2CCCN(Cc3ccccc3)CC2)c(Cl)c1 (stereo not drawn)
272 to 275 | N#Cc1ccc(-c2ccc(N3CCOCC3)cc2)[nH]c1=O
224 | O=C(Cc1ccccc1)Nc1ccc2c(c1)C(=O)c1cc(NC(=O)Cc3ccccc3)ccc1C2=O
65 to 67 | CC(C)(CCCCCC(O)CCCCCC(C)(C)CC(=O)c1cccnc1)COC(=O)c1cccnc1 (stereo not drawn)
95 | C=CC(=O)N(C)CCCCCCCCCCCOc1ccc(C(=O)O)c(C(=O)O)c1
148 to 149 | COc1ccccc1C(=O)CN1CCC(=O)C(C(c2ccc(F)cc2)c2ccc(F)cc2)C1 (stereo not drawn)
203 to 205 | Cn1nc(-c2ccccc2)c2c(C(F)(F)F)cc(OCC(=O)N[C@H]3CCc4ccccc43)nc21

melting point [°C] | SMILES
257 | Cc1nnc(N2C(=O)C(O)=C(C(=O)c3ccc(C(C)C)cc3)C2c2ccc(C(F)(F)F)cc2)s1 (stereo not drawn)
287 to 288 | Cc1nc(N)sc1C(=O)c1cccnc1
226 | CCn1c(=S)sc2c(=N)n(NC(=O)c3ccco3)cnc21
185 to 190 | CC(=O)C1=CCC2C3CCC4=CC(=O)CCC4(C)C3CCC12C (stereo not drawn)
182 to 183 | CCOC(=O)C1CC2C(=O)N=C(C(C)C)C=C2S1=N (stereo not drawn)
> 320 | NS(=O)(=O)c1ccc(C(=O)Nc2cn3cc(Cl)ccc3n2)cc1
111 to 112 | CCOC(=O)CCNc1ncccc1NC(=O)c1cccc(Cl)c1
193 | O=C(Nc1c(Br)cc(Br)cc1C(=O)NCC1CCCCC1)N[C@@H](Cc1ccc(NC(=O)c2c(Cl)cccc2Cl)cc1)C(=O)O
112 | CCOC(=O)[C@H](Cc1ccc(Nc2nccc3ccncc23)cc1)NC1=CC(=O)C12CCOCC2
40 to 41 | CCOC(=O)C(=Cc1ccc(OC)cc1OC)C(=O)OCC
58 to 59 | C(=C1CCCc2cccnc21)c1ccccc1
129 to 131 | CC(=O)OC1CSC(Oc2cncc(-c3c(C)noc3C)c2)C(OC(C)=O)C1OC(C)=O (stereo not drawn)
181 to 183 | COC(=O)c1cc(=O)c2cc(OC)c(=O)ccc2n1C
95 to 98 | CCc1ccc(O)c(C#N)c1
79 to 81 | CCOC(=O)C(=O)c1ccccc1C(=O)c1ccc(Cl)cc1
155 to 157 | CCOC(=O)C1=C(CSC(C)=O)NC=C(C(=O)OC)C1c1cccc(Cl)c1Cl (single isomer, unassigned; (-))
195 to 197 | Cc1cccc(N2Cc3nc(C(=O)O)nn3-c3ccccc32)c1C
220 | COc1cc2c(cc1OC)C1(O)c3ccccc3CCN1C2=O (stereo not drawn)
> 255 | Cc1nc2c(N)nc3cccnc3c2n1CC1(O)CCN(S(C)(=O)=O)CC1
130 to 132 | O=C1CC2CCCC3(C2)c2cccn2CCN13 (stereo not drawn)
138 | O=CNc1csc(Cl)n1
194 to 195 | C=Cc1c(N)nc(-c2ccc(Cl)nc2)nc1C(=O)OC
107 to 109 | S=C(NN=C(CCCCl)c1ccccc1)Nc1ccccc1
